Laboratory results published in paper PMC5573764, “Enzymatic characterization of a recombinant carbonyl reductase from Acetobacter sp. CCTCC M209061” (Bioresources and Bioprocessing, 2017).

Columns and labels:
Format in all cases: biochemical, Acetobacter sp. CCTCC M209061
[1] = biological target: T1, AcCR (recombinant carbonyl reductase; GAcCR) (Acetobacter sp., UniProt A0A2S1GUX7); assay: NADH absorbance at […] nm, initial rates; conditions: pH 6.5, 35 °C (optimum conditions), GST-tagged enzyme
T1 construct: N-terminal GST fusion from pGEX-2T, tag kept, about 53 kDa on SDS-PAGE; E. coli BL21(DE3)pLysS
T1 sequence (A0A2S1GUX7 1-253): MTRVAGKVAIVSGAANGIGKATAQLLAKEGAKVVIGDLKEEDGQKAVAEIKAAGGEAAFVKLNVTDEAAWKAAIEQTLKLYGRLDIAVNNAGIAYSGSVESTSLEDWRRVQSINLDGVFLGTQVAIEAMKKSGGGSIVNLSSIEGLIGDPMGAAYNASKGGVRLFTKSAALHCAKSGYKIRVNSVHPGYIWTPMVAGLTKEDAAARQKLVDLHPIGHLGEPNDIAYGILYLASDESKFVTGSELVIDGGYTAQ

[2] = biological target: T1, AcCR (recombinant carbonyl reductase; GAcCR); assay: NADH formation at […] nm, initial rates; conditions: 45 °C, optimum conditions (pH 8.0 in assay method, optimum 8.5), GST-tagged enzyme
[3] = biological target: T1, AcCR (recombinant carbonyl reductase; GAcCR); assay: NADPH formation at […] nm, initial rates; conditions: oxidation of isopropanol; 45 °C; optimum conditions (pH 8.0 in assay method); GST-tagged enzyme

SMILES: CC(=O)c1ccc(Cl)cc1 [4′-Chloroacetophenone]
- Km ([1]; co-substrate NADH): 260 µM

SMILES: CC(C)O [Isopropanol]
- Km ([2]; co-substrate NAD+): 23.8 mM

SMILES: NC(=O)C1=CN([C@@H]2O[C@H](COP(=O)(O)OP(=O)(O)OC[C@H]3O[C@@H](n4cnc5c(N)ncnc54)[C@H](O)[C@@H]3O)[C@@H](O)[C@H]2O)C=CC1 [NADH]
- Km ([1]; reduction of 4'-chloroacetophenone): 160 µM

SMILES: NC(=O)c1ccc[n+]([C@@H]2O[C@H](COP(=O)(O)OP(=O)(O)OC[C@H]3O[C@@H](n4cnc5c(N)ncnc54)[C@H](OP(=O)(O)O)[C@@H]3O)[C@@H](O)[C@H]2O)c1 [NADP^+]
- Km [3]: 1.39 mM

SMILES: NC(=O)c1ccc[n+]([C@@H]2O[C@H](COP(=O)(O)OP(=O)(O)OC[C@H]3O[C@@H](n4cnc5c(N)ncnc54)[C@H](O)[C@@H]3O)[C@@H](O)[C@H]2O)c1 [NAD^+]
- Km ([2]; oxidation of isopropanol): 0.38 mM
